Assay results as given in PubChem BioAssay AID449764 (Southern Research Specialized Biocontainment Screening …, 2010).

Test system: Mycobacterium tuberculosis H37Rv growth inhibition, no glycerol
Assay: Mycobacterium tuberculosis H37Rv growth inhibition, no glycerol, confirmatory dose response (AID 449764);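 further: growth read after 7 days of incubation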
Settings: for IC90: measured here: IC90 growth inhibition

| SMILES | IC50 | IC90 |
| --- | --- | --- |
| CCCCn1c(NCc2ccc3c(c2)OCO3)nc2ccccc21 | 23.5 µM | 25.9 µM |
| Cc1cc(C)nc(Sc2ncnc(N)c2[N+](=O)[O-])n1 | 19.3 µM | 25.5 µM |
| CCOc1ccc(N2CC(=O)Nc3ccccc3NCC2=O)cc1 | 55.7 µM | 83.1 µM |
| Cc1c(CN2CCC(CO)(Cc3cccc(C(F)(F)F)c3)CC2)c2ccccc2n1C | 31.2 µM | 39.6 µM |
| CCCn1c(Nc2nc3ccccc3n2C)nc2ccccc21 | 65.3 µM | 75.8 µM |
| O=C(NNC1CC(=O)N(c2ccc(Br)cc2)C1=O)c1ccccn1 (centres undefined) | 29.5 µM | > 100 µM |
| CCCCCCCNC(=O)c1ccc(N2CCC3(CC2)OCCO3)c([N+](=O)[O-])c1 | 48.3 µM | 67.2 µM |
| O=C(CSc1ncnc2nc[nH]c12)c1ccc(Cl)cc1 | 19.1 µM | 25.4 µM |
| COc1ccc(N=c2ssnc2Cl)cc1 | 90.6 µM | > 100 µM |
| CCn1cnc2sc(C(=O)Oc3ccc(Br)cc3)c(C)c2c1=O | 4.83 µM | 8.17 µM |
| CC(OC(=O)c1cnc2ccccc2n1)c1ccccc1Cl (centres undefined) | 22 µM | 34 µM |
| COc1ccc(N2CCN(C(=O)c3cc4c(C)nc5ccccc5c4o3)CC2)cc1 | 81.3 µM | > 100 µM |
| NC(=S)N/N=C/c1ccccc1OCCSc1ccc(Cl)cc1 | 37.8 µM | > 100 µM |
| CNc1nc(SCc2ccccc2Cl)nc2c1CCCC2 | 0.45 µM | 1.21 µM |
| O=C(Nc1cc(C(F)(F)F)ccc1Cl)C(Sc1cccc[n+]1[O-])c1ccccc1 (centres undefined) | 43.7 µM | 48.2 µM |
| Cc1ccccc1Cn1ccc(=NCc2ccccc2)cc1 | 10.2 µM | 14 µM |
| Cc1cc2c(ccc3c2no[n+]3[O-])nn1 | 17.4 µM | 22.8 µM |
| C/C(=N\NC(=O)c1nnn(-c2nonc2N)c1CN(C)c1ccccc1)c1ccccn1 | 11.9 µM | 13.6 µM |
| O=C(NCCc1ccc(Cl)cc1)c1ccc(CS(=O)Cc2ccc(Cl)cc2)o1 (centres undefined) | 45.2 µM | 52.1 µM |
| O=C(COC(=O)C1=COCCO1)Nc1cccc(Oc2ccccc2)c1 | 9.49 µM | 37.2 µM |
| CCc1ccc2nc(N(CCCN(C)C)C(=O)c3ccc(S(=O)(=O)N4CCCc5ccccc54)cc3)sc2c1 | 35 µM | 41 µM |
| COc1ccc(Cc2nc3ccc(C(=O)NCCCSC)cc3o2)cc1OC | 43.1 µM | 65.2 µM |
| Cc1csc(NC(=O)CCCC(=O)O)c1-c1nc2ccccc2s1 | 90.7 µM | > 100 µM |

| SMILES | IC50 | IC90 |
| --- | --- | --- |
| CCc1cccc2c(=O)c(C(=O)N3CCOCC3)c[nH]c12 | 15.3 µM | 22.9 µM |
| CCCCCCCCn1sccc1=O | 2.06 µM | 2.83 µM |
| COC(=O)[C@@H](NC(=O)c1cc(COc2cncc(Cl)c2)on1)c1ccccc1 | 2.93 µM | 3.31 µM |
| NC1=NC[C@H](CC2CCCCC2)N1CCc1cc(C(F)(F)F)cc(C(F)(F)F)c1 | 11.2 µM | 12.8 µM |
| COc1ccc(C2CC2/C(C)=N/OC(=O)c2ccc(F)cc2)cc1 (centres undefined) | 25.3 µM | 52.2 µM |
| O=C(c1ccccc1)C1CN(Cc2ccccc2)CCC1(O)c1ccccc1 (centres undefined) | 16.3 µM | 21.8 µM |
| CCOC(=O)CSc1nsc(SCC(=O)OCC)c1C#N | 11.9 µM | 13.5 µM |
| O=C(Nc1nc(-c2cc(Cl)sc2Cl)cs1)c1cccs1 | 67.7 µM | > 100 µM |
| CCOC(=O)c1ccc(Oc2nc(NC(C)(C)C)nc(N(C)C)n2)cc1 | 58.1 µM | > 100 µM |
| Cc1ccc2c(c1)c(C1=c3ccccc3=NC1=O)c(O)n2C | 2.95 µM | 4.82 µM |
| CC(C)(O)C#Cc1ccc(C(=O)Nc2ccc3c(c2)OCO3)s1 | 42.9 µM | > 100 µM |
| O=[N+]([O-])c1ccc(C2Oc3ccccc3C3CC(c4ccccc4)=NN32)s1 (centres undefined) | 7.13 µM | 9.52 µM |
| CCOC(=O)COn1c2c(c3c4no[n+]([O-])c4ccc31)CCCC2 | 5.68 µM | 6.48 µM |
| CCN(CC)CCOC(=O)c1ccc(N/C=C(/C#N)c2nc(-c3ccc4c(c3)OCO4)cs2)cc1 | 62.2 µM | > 100 µM |
| Cc1cc(/C=N/n2cnnc2)c(C)n1-c1ccc(OCc2ccc(Cl)cc2Cl)cc1 | 17.6 µM | 21.5 µM |
| Cc1cccc2c1-c1sc(C(=O)Nc3ccccc3N3CCN(C)CC3)cc1CO2 | 24.1 µM | 27.6 µM |
| Clc1ccc2c(c1)CCc1cccnc1C2=C1CCNCC1 | 32.9 µM | 38.8 µM |
| CCCCn1nc(C(=O)Nc2ccccc2N2CCCC2)c2ccccc2c1=O | 81 µM | > 100 µM |
| COc1ccccc1Nc1nc(N)nc(CCl)n1 | 4.83 µM | 12.3 µM |
| CC1(C)OC(=O)C(=Cc2ccc[nH]2)C(=O)O1 | < 0.2 µM | > 100 µM |
| CCc1ccc(NC2=NCC(c3ccccc3)S2)cc1 (centres undefined) | 8.96 µM | 16.7 µM |
| CCc1ccc2oc(-c3ccc(OC)cc3)cc(=Nc3c(C)n(C)n(-c4ccccc4)c3=O)c2c1 | 18.8 µM | 23.4 µM |
| Cn1ncnc2c(=O)n(C)c(=O)nc1-2 | 2.84 µM | 4.51 µM |

| SMILES | IC50 | IC90 |
| --- | --- | --- |
| COC(=O)c1ccc(NC(=S)NC(=O)C2CCC2)cc1 | 43.6 µM | > 100 µM |
| O=C(/C=C/c1ccc([N+](=O)[O-])cc1)NC1CC2CCC1C2 (centres undefined) | 68.7 µM | > 100 µM |
| COc1ccc(C2=NC(=O)/C(=C\c3cc(OC)c(OC)c(OC)c3)O2)cc1 | 11.1 µM | 16.2 µM |
| COc1ccc(-c2csc3nc(-c4ccccc4OC)oc(=O)c23)cc1 | 5.44 µM | 22.1 µM |
| Cn1c(NCC(O)c2ccccc2)nc2c1c(=O)n(Cc1ccc(Cl)c(Cl)c1)c(=O)n2C (centres undefined) | 77.8 µM | > 100 µM |
| COc1ccc(Cl)cc1C(=O)O/N=C(\N)c1ccccn1 | 76.4 µM | > 100 µM |
| COc1ccc(N=c2cc(-c3ccc(O)cc3)oc3ccccc23)cc1 | 23.3 µM | 26.5 µM |
| O=C(OCn1nnc2ccccc2c1=O)C1CCCCC1 | 5.88 µM | 6.69 µM |
| CCOC(=O)C1CCCN(c2ncnc3c2cnn3-c2ccc(OC)cc2)C1 (centres undefined) | 5.82 µM | 10.3 µM |
| COC(=O)c1ccc2c(c1O)C(=O)c1ccccc1C2=O | 83.6 µM | 89.4 µM |
| c1ccc(-c2cn3c(n2)CCc2ccc4cccnc4c2-3)cc1 | 22.4 µM | 25.4 µM |
| COc1ccc(/C=N/Nc2nncn2N)cc1Br | 10.5 µM | 13 µM |
| Oc1cc(Nc2ccccc2)cc2cccnc12 | 19.7 µM | 24.7 µM |
| Cc1nc(NC(=O)CC(C)C)sc1-c1csc(Nc2ccc(Cl)cc2Cl)n1 | 40.2 µM | 83.7 µM |
| O=C(Oc1ccccc1-c1nnco1)c1ccc(Cl)cc1 | 27.8 µM | 73.6 µM |
| CCc1ccc(NC(=S)/N=C(\N)Nc2nc(C)c3cc(CC)ccc3n2)cc1 | 10.9 µM | 21.1 µM |
| Cc1ccc(O)c(C(=O)CC(=O)c2ccccc2Cl)c1 | 17.9 µM | 27.3 µM |
| Cn1cnc(Sc2ncnc3nc[nH]c23)c1[N+](=O)[O-] | 12.1 µM | 21.1 µM |
| FC(F)(F)c1ccc(Nc2nnnc3ccccc23)cc1 | 48.8 µM | 55.3 µM |
| O=S(=O)(c1ccc(Cl)cc1)c1snnc1-c1ccccc1 | 18.8 µM | 29.9 µM |
| Cc1nc(N2CCC(C)CC2)c2oc3ccccc3c2n1 | 22.6 µM | 30.3 µM |
| C=CCOc1ccc(C2C(C#N)=C(N)N(Nc3ccccc3)C3=C2C(=O)CC(C)(C)C3)cc1OC (centres undefined) | 41.3 µM | > 100 µM |
| CCOC(=O)N1CCN(C(=O)CSc2nnc(-c3ccc(Cl)s3)o2)CC1 | 25.2 µM | 29.9 µM |

| SMILES | IC50 | IC90 |
| --- | --- | --- |
| Cc1nn(-c2ccccc2)c(C)c1/C=N/NC(=O)c1cc(-c2cccc3ccccc23)n[nH]1 | 48.3 µM | > 100 µM |
| C[n+]1c(-c2ccccc2)c2cc(N)ccc2c2ccc(N)cc21 | 16.4 µM | 20.9 µM |
| CCOC(=O)/C(=N/Nc1ccc(OC)cc1)N1CCCc2ccccc21 | 95.3 µM | > 100 µM |
| CC(/C=N/NC(=O)c1cc(-c2ccc3ccccc3c2)n[nH]1)=C\c1ccco1 | 43.8 µM | 66.8 µM |
| COC(=O)c1ccc(C(=O)OC)c(NC(=O)CSc2cccc[n+]2[O-])c1 | 5.72 µM | 6.25 µM |
| O=C(/C(=C/c1ccc(Cl)cc1)c1nc2ccccc2[nH]1)c1cccs1 | 35.5 µM | 96.8 µM |
| CCCCCCCCCCCCCCCC[N+](C)(C)CC | 36.1 µM | 48.4 µM |
| CCn1c(C)c(C)c2cc(C(=O)Nc3cccc(Cl)c3)ccc21 | 36.2 µM | > 100 µM |
| CCN(CC)C(=O)Oc1ccc2c(=O)c(-c3ccc(OC)cc3)coc2c1 | 52.8 µM | > 100 µM |
| CN(C(=O)c1cccc(Nc2ccc(-c3ccc4c(c3)OCCO4)nn2)c1)C1CCCCC1 | 69.2 µM | > 100 µM |
| O=C1CC(=C(c2ccccc2)c2ccccc2)C(=O)N1CCCCN1CCN(c2ccccc2)CC1 | 25.3 µM | 28.8 µM |
| CCCCCCCCn1cnc2c(N)c(C)c(C)cc21 | 59.8 µM | 78.3 µM |
| CCc1ccc(NC(=O)CSc2nc3n[nH]c(C)c3c(=N)n2-c2cccc(OC)c2)cc1 | 72.8 µM | > 100 µM |
| COc1ccccc1C1=NOC(COC(=O)c2ccc([N+](=O)[O-])cc2)C1 (centres undefined) | 47.7 µM | > 100 µM |
| CCOC(=O)c1cc(-c2ccccc2)nc2c1c(C)nn2-c1ccccn1 | 19.3 µM | 44.3 µM |
| CC1=NN(C(N)=S)C(=O)C1N=Nc1ccc(C)c(Br)c1 (centres undefined) | 37.2 µM | > 100 µM |
| NC(=O)N=Nc1c2[nH]c3ccccc3nc-2c2ccccc12 | 5.96 µM | 8.44 µM |
| O=C(Nc1nnc(C2=COCCO2)o1)c1ccc(Cc2ccccc2)cc1 | 11.7 µM | 20.3 µM |
| CCc1c(C)sc(NC(=S)N2CCN(CC)CC2)c1C(=O)OC | 13.3 µM | > 25 µM |
| S=C(NCCN1CCOCC1)N/N=C/c1cccs1 | 6.31 µM | 7.16 µM |
| O=C1/C(=C\c2ccncc2)CCc2ccccc21 | 45.9 µM | 49.7 µM |
| CC(C)CC[n+]1ccccc1/C=C/c1ccc(N(C)C)cc1 | 10.2 µM | 15.4 µM |
| Cc1ccccc1-n1sc2cc(F)ccc2c1=O | 22 µM | 24.6 µM |
